What was measured:
NIH 3T3 fibroblasts = assay: Cell growth potentiation test (potentiation of mitogenic activity of fetal calf serum, EZ4U cellular proliferation assay); type: cell-based; settings: for Cell growth potentiation relative to minoxidil at 100 μM (%): 0% = base concentration of FCS alone (5% or 3%), 100% = minoxidil at 100 μM; for Cell growth relative to FCS alone (%): 100% = same growth as base concentration of FCS alone
From the text: To test for activity in mammalian hair growth stimulation, an in vitro test of cell growth potentiation has been applied to a number of the compounds of the invention and prior art compounds 11901 and 11903. The test involves an assay of the call growth due to potentiation of the mitogenic activity of fetal calf serum (FCS). See WO97/14036. Details of materials, methods and results are as follows.
Tissue culture plastics were obtained from Beckton Dickinson (Cowley, Oxford, UK). NIH 3T3 fibroblasts were obtained from the European collection of animal cell cultures (Salisbury, Wilts, UK). Dulbecco's modified Eagle's medium (DMEM) was obtained from Flow Laboratories (Rickmansworth, Herts, UK). L-Glutamine and fetal calf serum were from Gibco (Paisley, UK).
The EZ4U cell proliferation assay kits were obtained from Cozart Bioscience Ltd (Abingdon, Oxon, UK). All other chemicals were obtained from Sigma Chemical Company Ltd. (Poole, Dorset, UK), and of the highest grade available.
NIH 3T3 fibroblasts were maintained in Dulbecco's modified Eagle's medium supplemented with 10% FCS and 2 mM L-glutamine in 150 cm^2 tissue culture flasks at 37° C. in an atmosphere of 5% CO2/95% air. Antibiotics were omitted. Medium was changed every 3 days, and passages were carried out twice a week before cells reached confluence. Prior to experiments, cells were passaged and plated out to give 10^4 cell/ml in 96-well multi-well plates. Cells were incubated for 24 hours with Dulbecco's modified Eagle's medium supplemented with 10% FCS to aid attachment. This was then removed and the experimental medium added.
Compounds were prepared following a general preparation protocol. This protocol consisted of taking a mass of compound, dissolving in the recommended solvent (40 μl) such that in the final preparation the concentrations of compound and solvent would be 100 μM and 0.1 respectively. In theory this volume was 40 μl, however for accuracy a mass larger than the required mass was dispensed and the solvent volume varied accordingly; only 40 μl of this solution was required for the next stage. The 40 μl volume was then added to a volume of FCS (1.2 ml), such that in the final preparation the concentration of FCS would be 3%. This solution was then added to DMEM containing L-glutamine (2 mM) (18.76 ml). The resulting solution of 20 ml volume was filter stabilised. This solution is now 200 μM in compound, 6% FCS and 0.2% solvent, and so was diluted 1:1 with the DMEM containing L-glutamine. This 100 μM stock could then be diluted serially to provide lower concentrations of the compound of interest. Solutions containing different ratios of compound and FCS were obtained in a similar manner.
This was performed, following the manufacturer's instructions, using an EZ4U assay kit, which is based upon the conversion of tetrazolium salt to coloured formazam derivatives by mitochondria (Hansen et al, 1989). Plates were read on a plate reader (Anthos Labtec HT2), using a measurement filter (450 nm), with a reference filter (620 nm) with a low Shaking density for 5 seconds prior to measurement. Control experiments were made against counting cells in a haemocytometer (sanders et al, 1996). There is some variance of results between different batches of FCS employed.
A series of cell growth potentiation/inhibition tests has been carried out in accordance with the procedure described above on some of the compounds of the invention, on compounds 11901 and 11903 and on minoxidil (a compound well known for its hair growth stimulation effects). Because of some variability of results with different batches of FCS, each compound was tested in a solution of a base concentration of FCS and was compared with minoxidil in a solution of the same base concentration of FCS and with a solution having the same base concentration of FCS alone (no additive), using the same FCS batch in order to provide standardised comparisons for that compound. […]

[1] = system: K+-stimulated isolated rat aorta; assay: K+-stimulated isolated rat aorta test; settings: relaxation of contraction triggered by 25 mM KCl in rat aorta rings; asterisk (*) = low activity, only approximate value
Experimental: K^+-stimulated Isolated Rat Aorta Test
Male rats weighing about 300 g are killed painlessly by a blow to the neck and quickly exsanguinated. The thoracic cavity is opened and the aorta is carefully resectioned. It is placed in a Petri dish filled with Krebs solution, and surrounding connective and fatty tissue is removed. Two rings are prepared. The rings are each suspended in an organ bath, They are attached at the bottom to a hook and at the top to an electrical force transducer which is able to measure precisely contractions of 0-10 grams in strength. The measured contractions are amplified by means of a bridge amplifier and recorded with a thermal plotter.
The organ baths are filled with Krebs solution at 37° C. through which an O2/CO2 mixture is bubbled thoroughly and which has the following composition (mmol/1): NaCl 118.4; KCl 4.7; CaCl2 2.5; KH2PO4 1.2; MgSO4 1.2; NaHCO3 25; glucose 11.
The rings are stretched with a basic tone of about 0.5 g, After an equilibration time of about 30 minutes, the rings are caused to undergo contraction by depolarization (addition of 25 mM KCl to the organ bath). The contractions of the rings of aorta, triggered by the depolarization, quickly reach a plateau, As soon as this plateau is reached (“100% value”), the test substance is added to the organ bath, initially at low concentrations, for example 10^−8M, and then in increasing doses at regular intervals, until the contractions reduce or the final concentration of 10^−4M is reached. Each test substance is tested 2-4 times in this way.
For purposes of evaluation, the height of the contractions registered on the plotter paper is measured for each experiment after the action of each test concentration added. The IC50 value can be calculated in this way in relation to the original height of contractions before the addition of substance (100%).

Row | Compound | IC50 [1] | melting point | Cell growth potentiation relative to minoxidil at 100 μM (%) (NIH 3T3 fibroblasts; Compound at 10 μM) | Cell growth potentiation relative to minoxidil at 100 μM (%) (NIH 3T3 fibroblasts; Compound at 100 μM) | Cell growth relative to FCS alone (%) (NIH 3T3 fibroblasts; Compound at 100 μM) | Cell growth relative to FCS alone (%) (NIH 3T3 fibroblasts; Compound at 10 μM)
1 | CC1(C)CC2(SCCCS2)c2sccc2O1 [Compound 50048, 6′,7′-Dihydro-5′,5′-dimethylspiro[1,3-dithiane-2,7′-5H-thieno[3,2-b]pyran]] | 2.9 µM | 121 to 123 °C |  |  |  | 
2 | CC1=C(C)CC2(CC(C)(C)Oc3ccsc32)SC1 (stereo not drawn) [Compound 50049, 3′,6,6′,7-Tetrahydro-4′,5,5,5′-tetramethylspiro[5H-thieno[3,2-b]pyran-7,2′-2H-thiopyran]] | ~10 µM | 90 to 92 °C |  |  | 50% | 100%
3 | CC1(C)CC2(SCCCS2)c2sc(C#N)cc2O1 [Compound 50057, 6′,7′-Dihydro-5′,5′-dimethylspiro[1,3-dithiane-2,7′-5H-thieno[3,2-b]pyran]-2′-carbonitrile] | ~10 µM |  |  | 33% |  | 98%

Now from value to compound, other results behind:

Row | IC50 [1] | melting point | Compound | Cell growth potentiation relative to minoxidil at 100 μM (%) (NIH 3T3 fibroblasts; Compound at 10 μM) | Cell growth potentiation relative to minoxidil at 100 μM (%) (NIH 3T3 fibroblasts; Compound at 100 μM) | Cell growth relative to FCS alone (%) (NIH 3T3 fibroblasts; Compound at 100 μM) | Cell growth relative to FCS alone (%) (NIH 3T3 fibroblasts; Compound at 10 μM)
4 | ~10 µM | 179 to 183 °C | CC1=C(C)C[C@@]2(CC(C)(C)Oc3cc(C#N)sc32)[S@+]([O-])C1 (relative stereo) [Compound 50097, rel-(1′R, 2′S)-3′,6,6′,7-Tetrahydro-4′,5,5′,5-tetramethyl-1′-oxospiro[5H-thieno[3,2-b]pyran-7,2′-2H-thiopyran]-2-carbonitrile] | 242% | 257% |  | 
5 | 0.026 µM |  | CC1(C)Oc2cc(S(=O)(=O)c3ccccc3)sc2[C@@H](N2CCCC2=O)[C@@H]1O (relative stereo) [Compound 50123, rel-(6S,7S)-6,7-Dihydro-6-hydroxy-5,5-dimethyl-7-(2-oxo-1-pyrrolidinyl)-2-(phenylsulphonyl)-5H-thieno[3,2-b]pyran] | 120% |  | 94% | 
6 | ~10 µM | 148 to 149 °C | CC1=C(C)CC2(CC(C)(C)Oc3cc(C#N)sc32)SC1 (stereo not drawn) [Compound 50092, 3′,6,6′,7-Tetrahydro-4′,5,5,5′-tetramethylspiro[5H-thieno[3,2-b]pyran-7,2′-2H-thiopyran]-2-carbonitrile] | 214% | 71% |  | 
7 | 0.24 µM |  | CC1(C)C=C(N2CCCC2=O)c2sc(S(=O)(=O)c3ccccc3)cc2O1 [Compound 50109, 5,5-Dimethyl-7-(2-oxo-1-pyrrolidinyl)-2-(phenylsulphonyl)-5H-thieno[3,2-b]pyran] | 233% | 122% |  | 
8 | > 100 µM | 175 to 178 °C | CC1=C(C)CC2(CC(C)(C)Oc3cc(S(=O)(=O)c4ccccc4)sc32)SC1 (stereo not drawn) [Compound 50121, 3′,6,6′,7-Tetrahydro-4′,5,5,5′-tetramethyl-2-(phenylsulphonyl)spiro[5H-thieno[3,2-b]pyran-7,2′-2H-thiopyran]] | 285% | 271% |  | 

From patent US6342517B1, “Potassium channel activators and their use” (Cambridge Bioclinical Limited, priority 1998, dated 2002)
